# From patent US6342492B1, “Anti-viral triaza compounds and compositions” (The Research Foundation of State University of New York, priority 1995, dated 2002)
# Counter-ions that a name gives are not always drawn. Like-named read-outs stand apart in the source and are kept apart here.
# Assays:
# [1] = Formulation for animal studies in DMSO/normal saline; format: physicochemical; details: 1:20 mixture of DMSO and normal saline (pH 2.7)
# Procedure: (§1) Additional studies on stability, solubility, formulation and pharmokinetics were carried out. Plasma elimination and urinary recovery from mice following i.v. administeration were examined. Solubility of the compound in human, mouse, rat plasma and plasma ultrafiltrate were examined. Stability of the compound in human urine was determined.
# in vitro [2] = format: in vitro ADME; details: plasma
# Procedure: as §1
# rous sarcoma virus = experiment: Antiviral testing against rous sarcoma virus (Example 5); format: cell-based; details: RSV, concentration causing 50% protection against virus, PDR = poor dose response
# [3] = Solubility in human plasma; format: physicochemical; details: plasma or biological fluid, human plasma at 37° C.
# Procedure: as §1
# U1/TNF latent infection = experiment: Latent infection (U1/TNF); format: cell-based
# [4] = system: HIV-1 (IIIB, AZT-resistant, AZT-sensitive, A17, WeJo), HIV-2, SIV; experiment: Anti-HIV testing against additional strains (Example 2); format: cell-based; details: viruses and cell lines listed in Example 2
# Procedure: (§2) Compounds of the invention were tested to assess the efficacy of the inhibitory effect of the compounds against HIV. The screen was carried out in a soluble formazan assay by the tetrazolium method according to Weislow et al., J. Natl. Cancer Inst. 81:577-586, 1989.
# (§3) The compound was dissolved in dimethyl sulfoxide (DMSO) (final conc. less than 0.25%) and then diluted 1:100 in cell culture medium. Because DMSO is toxic to cells at concentration above 1%, the concentration of the compound in DMSO should be at least 10 uM before dilution with aqueous solution. Various concentrations of the compound were tested against HIV-1 in CEM-IW cells. After six days incubation at 37° C. in a 5% carbon dioxide atmosphere, viable cells were analyzed through addition of tetrazolium salt XTT followed by incubation to allow formazan color development. Cell viability was viewed microscopically and detected spectrophotometrically to quantitate formazan production.
# (§4) Testing was carried out as described in Example 1 against additional HIV strains. The compound CADA was active against the following viruses using the indicated cell lines:
# (§5) IIIB strain of HIV-1/MT-4 cell line
# (§6) AZT—resistant HIV-1/MT-2 and MT-4 cell lines
# (§7) AZT—sensitive HIV-1/MT-4 cell line
# A17, a strain of HIV-1 resistant to most of the non-nucleoside reverse transcriptase inhibitors/MT-2 and MT-4 cell lines, […]
# virus attachment = experiment: Attachment (p 24 based); format: cell-based, HIV
# [5] = Stability in pH 4.0 buffer; format: physicochemical
# Procedure: as §1
# [6] = system: MT-4, CEM, MT-2 cell lines, PBMCs; experiment: Cell toxicity in testing against additional strains (Example 2); format: cell-based; details: Homo sapiens, MT2
# Procedure: (§8) In these tests, the IC50 (50% inhibitory concentration) is the concentration resulting in 50% cellular toxicity. EC50 (median effective concentration) is the compound concentration that reduces infection by 50%. The effectiveness of a compound against a virus is expressed as TI50 (median therapeutic index) which is determined by the ratio IC50/EC50.
# as §4, §5, §6, §7
# A17, a strain of HIV-1 resistant to most of the non-nucleoside reverse transcriptase inhibitors/MT-2 and MT-4 cell lines,
# WeJo, a clinical isolate of HIV-1/PBMCs (fresh human peripheral blood mononuclear cells).
# HIV-1 Wejo = experiment: PBL/HIV-1 Wejo infection; format: cell-based
# From the text: (§9) The studies were based on activity of the compound against HIV-1 in peripheral blood lymphocytes. The results with different solutions and different batches of the compound confirm that the compound is active at submicromolar levels (EC50) and has low cytotoxicity (IC50).
# cell fusion = experiment: Cell fusion (mechanism of action studies); format: cell-based, HIV; details: preliminary mechanism of action studies
# [7] = system: influenza virus (FLU WSN); experiment: Antiviral testing against influenza virus (Example 5); format: cell-based; details: FLU WSH, concentration causing 50% protection against virus
# HIV strain MD48 = experiment: MAGI assay on HeLa-MAGIC cells (plaque inhibition); format: cell-based; details: read-out: ED50 MD48/HeLa
# [8] = system: HIV strain 2h, a primary pediatric clinical isolate; experiment: Protein (p24) assay in PBMC cells with 2h; format: cell-based; details: read-out: ED50 2h/PBMC
# [9] = Plasma elimination in mice after i.v. administration; format: in vivo; details: mouse plasma, intravenous administration
# Procedure: as §1
# HIV-1 = experiment: Anti-HIV soluble formazan (XTT tetrazolium) assay in CEM-IW cells; format: cell-based
# Procedure: as §8, §2, §3
# [10] = system: human cytomegalovirus (HCMV); experiment: Antiviral testing against human cytomegalovirus (Example 5); format: cell-based; details: concentration causing 50% protection against virus, PDR = poor dose response
# HIV strain MB48 = experiment: Reverse transcriptase (RT) assay in MT-2 cells, HIV strain MB48; format: cell-based
# Human Cytomegalovirus = experiment: Semi-automated CPE-inhibition assay for HCMV in human foreskin fibroblast cells; format: cell-based
# Procedure: (§10) Additional antiviral testing was carried out to test the efficacy of compounds of the invention against human cytomegalovirus (HCMV) and another herpesvirus, Variecella Zoster Virus(VZV). The compounds tested were compound (1), the HCl salt of compound (1), Compounds 211, 43, 213 and 214.
# [11] = Inhibition of cell proliferation (cytotoxicity) in herpesvirus screening; format: cell-based, human; details: human, human foreskin fibroblast cells, inhibit cell proliferation by 50%
# HIV-1 Ba-L = experiment: Mo-MO/HIV-1 Ba-L infection; format: cell-based; details: Human immunodeficiency virus 1, BAL; fresh
# in vitro [12] = format: in vitro ADME; details: rat, plasma
# [13] = system: peripheral blood lymphocytes; experiment: Cytotoxicity in PBL/HIV-1 Wejo infection assay; format: cell-based
# From the text: as §9
# Varicella Zoster Virus = experiment: Plaque reduction assay for VZV (Ellen strain); format: cell-based
# Procedure: as §10
# [14] = biological target: T1, HIV reverse transcriptase (Human immunodeficiency virus type 1 group M subtype B, UniProt P04585); experiment: RT activity (rA.dT); format: biochemical
# T1 construct: HIV reverse transcriptase
# HIV protease = biological target: T2, HIV protease (Human immunodeficiency virus type 1 group M subtype B, UniProt P04585); experiment: Protease activity (rp HPLC); format: biochemical; details: read-out: Protease Activity (rp HPLC) ID50
# T2 construct: HIV protease
# Mo-MO = experiment: Cytotoxicity in Mo-MO/HIV-1 Ba-L infection assay; format: cell-based; details: high test
# [15] = system: herpes simplex virus (HSV); experiment: Antiviral testing against herpes simplex virus (Example 5); format: cell-based; details: concentration causing 50% protection against virus, PDR = poor dose response
# [16] = system: human foreskin fibroblast cells; experiment: Inhibition of cell proliferation (cytotoxicity) in herpesvirus screening; format: cell-based; details: inhibit cell proliferation by 50%
# [17] = system: Varicella Zaster Virus (VZV); experiment: Ocular Varicella Zaster Virus infection in rabbits, intravenous therapy; format: in vivo, rabbit
# [18] = HCMV CPE-inhibition screen, read-out: Human Cytomegalovirus CC50
# [19] = VZV screen, read-out: Varicella Zoster Virus CC50
# [20] = MAGI assay on HeLa-MAGIC cells (plaque inhibition)
# [21] = Protein (p24) assay in PBMC cells
# [22] = Reverse transcriptase (RT) assay in MT-2 cells, read-out: ED50 MB48/MT-2
smiles,measurement,setting,value
"C=C1CN(S(=O)(=O)c2ccc(C)cc2)CCCN(Cc2ccccc2)CCCN(S(=O)(=O)c2ccc(C)cc2)C1 [Compound 1, 9-Benzyl-3-methylene-1,5-ditosyl-1,5,9-triazacyclododecane]",concentration at which the compound can be formulated,[1],1200 nM
same,half-life,in vitro [2]; human,126 h
same,half-life,in vitro [2]; mouse,> 200 h
same,IC50,rous sarcoma virus; read-out: IC50,> 30 µg/mL
same,solubility,[3],1 to 2 µg/mL
same,solubility,[3]; conversion of ug/mL,2 to 3 µM
same,Latent Infection,U1/TNF latent infection,No inhibition
same,EC50,[4],2000 nM
same,Attachment,virus attachment,No Inhibition
same,half-life,[5],139 h
same,IC50,[6],> 30000 nM
same,EC50,"HIV-1 Wejo; Human immunodeficiency virus 1, Batch 1, A",550 nM
same,EC50,"HIV-1 Wejo; Human immunodeficiency virus 1, Batch 1, B",160 nM
same,EC50,"HIV-1 Wejo; Human immunodeficiency virus 1, Batch 2",650 nM
same,inhibition of cell fusion,cell fusion,does not appear to inhibit
same,IC50,[7]; listed as CADA (1),> 50 µg/mL
same,IC50,"[7]; unidentified influenza virus, WSN",> 30 µg/mL
same,EC50,"HIV strain MD48; Human immunodeficiency virus 1, MAGI",500 nM
same,EC50,"[8]; Human immunodeficiency virus 1, PBMC, 2 h",150 nM
same,time detectable in plasma,[9],up to 2 hours
same,EC50,"HIV-1; Human immunodeficiency virus 1, HIV-1(6S)-AZT sensitive, CEM-IW cells, first test",1200 nM
same,EC50,"HIV-1; Human immunodeficiency virus 1, second test, another batch, primary screen",2400 nM
same,IC50,"[10]; HCMV, listed as CADA (1)",> 50 µg/mL
same,IC50,"[10]; Human betaherpesvirus 5, HCMV, read-out: IC50",> 30 µg/mL
same,EC50,"HIV strain MB48; Human immunodeficiency virus 1, MT2, read-out: ED50 MB48/MT-2",800 nM
same,EC50,Human Cytomegalovirus; Human betaherpesvirus 5,> 34000 nM
same,CC50,[11]; [18],133000 nM
same,CC50,[11]; [19],89000 nM
same,EC50,HIV-1 Ba-L,1500 nM
same,half-life,in vitro [12],> 200 h
same,IC50,"[13]; Batch 1, B",> 100000 nM
same,IC50,[13]; Batch 2,> 100000 nM
same,IC50,"[13]; Lymphocyte, Batch 1, A",> 100000 nM
same,EC50,Varicella Zoster Virus; Human alphaherpesvirus 3,5300 nM
same,RT activity (rA.dT) ID50,[14],No Inhibition
same,IC50,HIV protease,40000 nM
same,IC50,Mo-MO,> 30000 nM
"C=CCN(CCCN(CCCN(CC=C)S(=O)(=O)c1ccc(C)cc1)Cc1ccccc1)S(=O)(=O)c1ccc(C)cc1 [Compound 004, N-Benzylbis[3-(N′-2-propenyltoluenesulfonamido)propyl]amine dihydrogen sulfate]",EC50,HIV strain MD48; [20],3500 nM
same,EC50,[8]; [21],500 nM
same,EC50,HIV strain MB48; [22],2600 nM
"O=S(=O)(NCCCN(CCCNS(=O)(=O)c1ccccc1)Cc1ccccc1)c1ccccc1 (as salt: hydrochloride) [Compound 210, N-Benzylbis(3-benzenesulfonamidopropyl)amine]",melting point,,135 to 136 °C
C=C1CN(S(=O)(=O)c2ccc(C)cc2)CCCN(Cc2ccccc2)CCCN(S(=O)(=O)c2ccc(C)cc2)C1.Cl [1 · HCl],IC50,rous sarcoma virus,PDR
same,IC50,[7],>50 µg/mL
same,EC50,HIV strain MD48; [20],100 nM
same,IC50,[15],PDR
same,EC50,[8]; [21],150 nM
same,IC50,[10]; HCMV,PDR
same,EC50,HIV strain MB48; [22],200 nM
same,EC50,Human Cytomegalovirus,> 160000 nM
same,CC50,[16]; [18],> 160000 nM
same,CC50,[16]; [19],> 160000 nM
same,"development of iritis and resolution of VZV disease, comparison of therapies",[17]; By day 5 PI,more effective than acyclovir therapy
same,iris disease (uveitis) development,"[17]; rabbits, intravenous therapy",positive therapeutic response
same,VZV-induced corneal stromal disease development,"[17]; rabbits, intravenous, CADA-HCl 5 and 10 mg/kg/day, ACV 20 mg/kg/day",effective in reducing the development of stromal disease
same,EC50,Varicella Zoster Virus,3400 nM
